From patent US20240327756A1, “METAL COMPLEXES, AND D[…] CONTAINING SAME” (HENKEL AG & CO. KGAA, priority 2021, published 2024)

Molecular target: bovine serum albumin (BSA) (Bos taurus, UniProt P02769)
Conditions: BSA 0.02 mM, complex 2 mM, 60° C., pH 9, 24 h incubation; reference without complex = 1.0
Method: The hydrolysis of protein dirt was investigated using degradation of bovine serum albumin (BSA). […] The incubated material was then examined with the known method of SDS-PAGE with regard to the intensity of the band to be assigned to BSA. BSA incubated under the same conditions without the addition of complexes served as reference. The intensity values given in the following table are relative values based on the intensity of the band of the reference at t=24 h.

bovine serum albumin (BSA), sequence (P02769 25-607): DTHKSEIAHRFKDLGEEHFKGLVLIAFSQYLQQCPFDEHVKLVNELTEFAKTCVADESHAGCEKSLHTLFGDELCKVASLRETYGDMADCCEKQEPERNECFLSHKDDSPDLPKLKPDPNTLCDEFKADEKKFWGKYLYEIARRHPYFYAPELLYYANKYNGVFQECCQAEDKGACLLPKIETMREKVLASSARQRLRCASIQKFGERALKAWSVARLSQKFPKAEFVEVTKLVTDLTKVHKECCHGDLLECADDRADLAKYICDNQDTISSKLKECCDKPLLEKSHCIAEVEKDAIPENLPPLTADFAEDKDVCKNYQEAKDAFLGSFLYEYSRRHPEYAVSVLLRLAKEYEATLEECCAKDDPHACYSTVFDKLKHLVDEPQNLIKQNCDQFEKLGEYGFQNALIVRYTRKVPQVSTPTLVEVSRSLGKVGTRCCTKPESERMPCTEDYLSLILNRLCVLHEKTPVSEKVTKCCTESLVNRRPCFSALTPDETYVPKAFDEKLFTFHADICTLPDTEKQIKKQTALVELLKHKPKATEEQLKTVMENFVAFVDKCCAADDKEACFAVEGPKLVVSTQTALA

Sc (III) Complex of 1,7-dioxa-4,10-diazacyclododecane-4,10-di(methyl(phenol)) [complex P1]
Intensity (of the SDS-PAGE band assigned to BSA, relative to the reference band at t=24 h): 0.84
